Measured values reported in patent US10329309B2, “3-(3H-imidazo[4,5-B]pyridin-2-yl)-1H-pyrazolo[4,3-B]pyridines and therapeutic uses thereof” (Samumed, LLC, priority 2015, dated 2019).

Test system: Wnt activity (Sp5-Luc reporter, SW480 colon carcinoma cells)
Test: Screening assay for Wnt activity: Sp5-Luc reporter gene assay in SW480 cells
Type: cell-based
Conditions: Homo sapiens; for EC50: overnight incubation, 10-point dose-response from 10 μM; for inhibition at 10 µM: 10 μM compound, read-out: percent inhibition at 10 μM (given for EC50 of >10 μM)
Procedure, shortened: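 SW480 cells stably carrying Sp5-Luc reporter (eight TCF/LEF sites) plated at 4,000/well in 1% FBS medium with compound (10-point 1:3 series from 10 μM, 0.1% DMSO) overnight at 37 °C. BrightGlo luminescence normalized to DMSO; EC50 by four-parameter fit, else % inhibition at 10 μM.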

SMILES | EC50 [µM] | inhibition at 10 µM [%]
CN1CCN(c2ccnc3[nH]c(-c4n[nH]c5ccc(-c6cnccn6)nc45)nc23)CC1 [Compound 648, 3-(7-(4-Methylpiperazin-1-yl)-3H-imidazo[4,5-b]pyridin-2-yl)-5-(pyrazin-2-yl)-1H-pyrazolo[4,3-b]pyridine] | 4.34 | –
c1cnc2[nH]c(-c3n[nH]c4ccc(-c5cncc(OC6CCNCC6)c5)nc34)nc2c1 [Compound 656, 3-(3H-Imidazo[4,5-b]pyridin-2-yl)-5-(5-(piperidin-4-yloxy)pyridin-3-yl)-1H-pyrazolo[4,3-b]pyridine] | > 10 | 22.1
Oc1cncc(-c2ccc3[nH]nc(-c4nc5cccnc5[nH]4)c3n2)c1 [Compound 661, 5-(3-(3H-Imidazo[4,5-b]pyridin-2-yl)-1H-pyrazolo[4,3-b]pyridin-5-yl) pyridin-3-ol] | > 10 | 7.2
Cn1cc(-c2ccc3[nH]nc(-c4nc5c(-c6cccs6)ccnc5[nH]4)c3n2)cn1 [Compound 700, 5-(1-Methyl-1H-pyrazol-4-yl)-3-(7-(thiophen-2-yl)-3H-imidazo[4,5-b]pyridin-2-yl)-1H-pyrazolo[4,3-b]pyridine] | > 10 | 3.4
CN(C)CCOc1cncc(-c2ccc3[nH]nc(-c4nc5c(-c6cccs6)ccnc5[nH]4)c3n2)c1 [Compound 707, N,N-Dimethyl-2-((5-(3-(7-(thiophen-2-yl)-3H-imidazo[4,5-b]pyridin-2-yl)-1H-pyrazolo[4,3-b]pyridin-5-yl)pyridin-3-yl)oxy)ethan-1-amine] | 3.57 | –
Cc1ccc(-c2ccnc3[nH]c(-c4n[nH]c5ccc(-c6cncc(OC7CCCCC7)c6)nc45)nc23)s1 [Compound 735, 5-(5-(Cyclohexyloxy)pyridin-3-yl)-3-(7-(5-methylthiophen-2-yl)-3H-imidazo[4,5-b]pyridin-2-yl)-1H-pyrazolo[4,3-b]pyridine] | 0.984 | –
CS(=O)(=O)NCc1cc(F)cc(-c2ccnc3[nH]c(-c4n[nH]c5ccc(-c6cncc(NC(=O)CC7CCNCC7)c6)nc45)nc23)c1 [Compound 769, N-(5-(3-(7-(3-Fluoro-5-(methylsulfonamidomethyl)phenyl)-3H-imidazo[4,5-b]pyridin-2-yl)-1H-pyrazolo[4,3-b]pyridin-5-yl)pyridin-3-yl)-2-(piperidin-4-yl)acetamide] | > 10 | 12.1
COc1cccc(-c2ccnc3[nH]c(-c4n[nH]c5ccc(-c6cncc(OC7CCNCC7)c6)nc45)nc23)c1 [Compound 1025, 3-(7-(3-Methoxyphenyl)-3H-imidazo[4,5-b]pyridin-2-yl)-5-(5-(piperidin-4-yloxy)pyridin-3-yl)-1H-pyrazolo[4,3-b]pyridine] | > 10 | 39.2
c1cc(-c2ccc3c(c2)OCO3)c2nc(-c3n[nH]c4ccc(C5CCNCC5)nc34)[nH]c2n1 [Compound 1108, 3-(7-(Benzo[d][1,3]dioxol-5-yl)-3H-imidazo[4,5-b]pyridin-2-yl)-5-(piperidin-4-yl)-1H-pyrazolo[4,3-b]pyridine] | > 10 | 9.3
C1=C(c2ccc3[nH]nc(-c4nc5c(-c6ccc7c(c6)OCO7)ccnc5[nH]4)c3n2)CCNC1 [Compound 1109, 3-(7-(Benzo[d][1,3]dioxol-5-yl)-3H-imidazo[4,5-b]pyridin-2-yl)-5-(1,2,3,6-tetrahydropyridin-4-yl)-1H-pyrazolo[4,3-b]pyridine] | > 10 | 14.5
Cn1cc(-c2ccc3[nH]nc(-c4nc5c(-c6ccc7c(c6)OCO7)ccnc5[nH]4)c3n2)c(CO)n1 [Compound 1152, (4-(3-(7-(Benzo[d][1,3]dioxol-5-yl)-3H-imidazo[4,5-b]pyridin-2-yl)-1H-pyrazolo[4,3-b]pyridin-5-yl)-1-methyl-1H-pyrazol-3-yl)methanol] | > 10 | 15.4

The next lines start with results.

EC50 [µM] | SMILES | inhibition at 10 µM [%]
> 10 | c1cnc2[nH]c(-c3n[nH]c4ccc(-c5cn[nH]c5)nc34)nc2c1 [Compound 651, 3-(3H-Imidazo[4,5-b]pyridin-2-yl)-5-(1H-pyrazol-4-yl)-1H-pyrazolo[4,3-b]pyridine] | 12
> 10 | O=C(CC1CCNCC1)Nc1cncc(-c2ccc3[nH]nc(-c4nc5c(-c6ccsc6)ccnc5[nH]4)c3n2)c1 [Compound 673, 2-(Piperidin-4-yl)-N-(5-(3-(7-(thiophen-3-yl)-3H-imidazo[4,5-b]pyridin-2-yl)-1H-pyrazolo[4,3-b]pyridin-5-yl)pyridin-3-yl)acetamide] | 26.9
2.82 | Cc1ncc(-c2ccc3[nH]nc(-c4nc5c(-c6ccoc6)ccnc5[nH]4)c3n2)n1C [Compound 685, 5-(1,2-Dimethyl-1H-imidazol-5-yl)-3-(7-(furan-3-yl)-3H-imidazo[4,5-b]pyridin-2-yl)-1H-pyrazolo[4,3-b]pyridine] | –
> 10 | c1cc(-c2ccoc2)c2nc(-c3n[nH]c4ccc(-c5cncc(OCCN6CCCC6)c5)nc34)[nH]c2n1 [Compound 690, 3-(7-(Furan-3-yl)-3H-imidazo[4,5-b]pyridin-2-yl)-5-(5-(2-(pyrrolidin-1-yl)ethoxy)pyridin-3-yl)-1H-pyrazolo[4,3-b]pyridine] | 37.6
> 10 | COc1cncc(-c2ccc3[nH]nc(-c4nc5c(-c6ccoc6)ccnc5[nH]4)c3n2)c1 [Compound 692, 3-(7-(Furan-3-yl)-3H-imidazo[4,5-b]pyridin-2-yl)-5-(5-methoxypyridin-3-yl)-1H-pyrazolo[4,3-b]pyridine] | 15.3
> 10 | Cn1cc(-c2ccc3[nH]nc(-c4nc5c(-c6cc(F)cc(CNS(C)(=O)=O)c6)ccnc5[nH]4)c3n2)cn1 [Compound 764, N-(3-Fluoro-5-(2-(5-(1-methyl-1H-pyrazol-4-yl)-1H-pyrazolo[4,3-b]pyridin-3-yl)-3H-imidazo[4,5-b]pyridin-7-yl)benzyl)methanesulfonamide] | 20.9
6.25 | CN(C)CCNc1cc(F)cc(-c2ccnc3[nH]c(-c4n[nH]c5ccc(-c6cncc(OCCN7CCCC7)c6)nc45)nc23)c1 [Compound 786, N^1-(3-Fluoro-5-(2-(5-(5-(2-(pyrrolidin-1-yl)ethoxy)pyridin-3-yl)-1H-pyrazolo[4,3-b]pyridin-3-yl)-3H-imidazo[4,5-b]pyridin-7-yl)phenyl)-N^2,N^2-dimethylethane-1,2-diamine] | –
3.93 | CN(C)CCNc1cc(F)cc(-c2ccnc3[nH]c(-c4n[nH]c5ccc(-c6cnccn6)nc45)nc23)c1 [Compound 792, N^1-(3-Fluoro-5-(2-(5-(pyrazin-2-yl)-1H-pyrazolo[4,3-b]pyridin-3-yl)-3H-imidazo[4,5-b]pyridin-7-yl)phenyl)-N^2,N^2-dimethylethane-1,2-diamine] | –
> 10 | COc1cccc(-c2ccnc3[nH]c(-c4n[nH]c5ccc(-c6cncc(O)c6)nc45)nc23)c1 [Compound 1030, 5-(3-(7-(3-Methoxyphenyl)-3H-imidazo[4,5-b]pyridin-2-yl)-1H-pyrazolo [4,3-b]pyridin-5-yl)pyridin-3-ol] | 33.5
> 10 | Cn1cc(-c2ccc3[nH]nc(-c4nc5c(-c6ccc(F)cc6)ccnc5[nH]4)c3n2)c(CO)n1 [Compound 1129, (4-(3-(7-(4-Fluorophenyl)-3H-imidazo[4,5-b]pyridin-2-yl)-1H-pyrazolo[4,3-b]pyridin-5-yl)-1-methyl-1H-pyrazol-3-yl)methanol] | 14.8
> 10 | Cn1cc(-c2ccc3[nH]nc(-c4nc5c(N6CCCCC6)ccnc5[nH]4)c3n2)c(CO)n1 [Compound 1134, (1-Methyl-4-(3-(7-(piperidin-1-yl)-3H-imidazo[4,5-b]pyridin-2-yl)-1H-pyrazolo[4,3-b]pyridin-5-yl)-1H-pyrazol-3-yl)methanol] | 4
